Test results from patent US20190105367A1, “ANTIMICROBIAL 4-OXOQUINOLIZINES” (Emergent Product Development Gaithersburg Inc., priority 2011, published 2019).
In brackets after ≈: the same amount, converted by molar mass. Where two headings read alike, the source gives them in different places.

Assays:
A. baumannii ATCC 19606 [1] = experiment: Preliminary MBC without and with sub-inhibitory polymyxin B (Example 4); assay type: cell-based, Acinetobacter baumannii; conditions: Acinetobacter baumannii
A. baumannii NCTC 13301 [2] = experiment: MIC without and with sub-inhibitory polymyxin B (Example 4); assay type: cell-based, Acinetobacter baumannii
[3] = tested on: Acinetobacter sp. (H064200250); experiment: as above; assay type: cell-based
A. baumannii A489 [4] = experiment: Preliminary MBC without and with sub-inhibitory polymyxin B (Example 4); assay type: cell-based, Acinetobacter baumannii; conditions: Acinetobacter baumannii, preliminary MBC
A. baumannii J2 = experiment: MIC without and with sub-inhibitory polymyxin B (Example 4); assay type: cell-based, Acinetobacter baumannii; conditions: for MIC without PB/MIC + PB: A. baumannii J2; for MIC: Acinetobacter baumannii
A. baumannii A472 [5] = experiment: as above; assay type: cell-based, Acinetobacter baumannii; conditions: for MIC: Acinetobacter baumannii
A. baumannii A401 = experiment: as above; assay type: cell-based, Acinetobacter baumannii; conditions: A baumannii A 401; ratio, PB 0.06 μg/ml; 1st experiment
A. baumannii NCTC 13301 [6] = experiment: as above; assay type: cell-based, Acinetobacter baumannii; remark: listed apart in the source
[7] = tested on: strains of A. baumannii and one strain of Acinetobacter sp.; experiment: MIC with sub-inhibitory concentrations (0.25x MIC) of polymyxin B, panel of Acinetobacter strains (Example 4); assay type: cell-based
A. baumannii A14 [8] = experiment: MIC without and with sub-inhibitory polymyxin B (Example 4); assay type: cell-based, Acinetobacter baumannii; conditions: A. baumannii A14; +0.06 μg/ml PB; 2nd experiment
A. baumannii A387 [9] = experiment: Preliminary MBC without and with sub-inhibitory polymyxin B (Example 4); assay type: cell-based, Acinetobacter baumannii; conditions: Acinetobacter baumannii, A387, A. baumannii A387, +0.06 μg/ml PB, 2nd experiment, read-out: MBC
A. baumannii A390 [10] = experiment: MIC without and with sub-inhibitory polymyxin B (Example 4); assay type: cell-based, Acinetobacter baumannii; conditions: +0.06 μg/ml PB, 2nd experiment
A. baumannii A472 [11] = experiment: Preliminary MBC without and with sub-inhibitory polymyxin B (Example 4); assay type: cell-based, Acinetobacter baumannii; conditions: Acinetobacter baumannii, preliminary MBC
A. baumannii ATCC 19606 [12] = experiment: MIC without and with sub-inhibitory polymyxin B (Example 4); assay type: cell-based, Acinetobacter baumannii; conditions: for MIC without PB/MIC + PB: A. baumannii ATCC 19606; for MIC: Acinetobacter baumannii
A. baumannii A473 [13] = experiment: as above; assay type: cell-based, Acinetobacter baumannii
A. baumannii A387 [14] = experiment: as above; assay type: cell-based, Acinetobacter baumannii; conditions: for MIC without PB/MIC + PB: A. baumannii A387
A. baumannii A489 [15] = experiment: as above; assay type: cell-based, Acinetobacter baumannii; conditions: for MIC without PB/MIC + PB: A. baumannii A489; for MIC: Acinetobacter baumannii
A. baumannii A390 [16] = experiment: Preliminary MBC without and with sub-inhibitory polymyxin B (Example 4); assay type: cell-based, Acinetobacter baumannii; conditions: Acinetobacter baumannii, A390, A. baumannii A390, +0.06 μg/ml PB, 2nd experiment, read-out: MBC
Description: (§1) The plates were incubated for 18-20 hours at 37° C. The MBC was read as the lowest concentration at which colony growth was ca. 90% less than the positive control (i.e. usually where single colonies or no colonies were observed).

A. baumannii A14 [17] = experiment: as above; assay type: cell-based, Acinetobacter baumannii; conditions: A. baumannii A14, +0.06 μg/ml PB, 2nd experiment
Description: as §1

A. baumannii A473 [18] = experiment: as above; assay type: cell-based, Acinetobacter baumannii; conditions: Acinetobacter baumannii, A473, A. baumannii A473, +0.06 μg/ml PB, 2nd experiment, read-out: MBC
Description: as §1

A. baumannii NCTC 13301 [19] = experiment: as above; assay type: cell-based, Acinetobacter baumannii; conditions: Acinetobacter baumannii
Description: as §1

A. baumannii A329 = experiment: MIC without and with sub-inhibitory polymyxin B (Example 4); assay type: cell-based, Acinetobacter baumannii; conditions: A. baumannii A329; +0.06 μg/ml PB; 2nd experiment
[20] = ratio, PB 0.06 μg/ml, 1st experiment

`NCC[C@H](O)C(=O)N[C@@H]1C[C@H](N)[C@@H](O[C@H]2O[C@H](CN)[C@@H](O)[C@H](O)[C@H]2O)[C@H](O)[C@H]1O[C@H]1O[C@H](CO)[C@@H](O)[C@H](N)[C@H]1O` [Amikacin, reference compound] was tested, and the MBC (A. baumannii ATCC 19606 [1]; ATCC19606, A. baumannii ATCC 19606, +0.06 μg/ml PB, 2nd experiment, read-out: MBC) was 8 µg/mL (≈ 13.7 µM), the MBC (A. baumannii ATCC 19606 [1]; ATCC19606, read-out: MBC +0.06 μg/ml PB, A. baumannii ATCC 19606, +0.06 μg/ml polymyxin B, 1st experiment) was 8 µg/mL and the “MIC without PB/MIC + PB” value (A. baumannii NCTC 13301 [2]; A. baumannii NCTC 13301, ratio, PB […], 1st experiment) was ≥1. For the same compound, the MIC (A. baumannii NCTC 13301 [2]; Acinetobacter baumannii, NCTC13301, read-out: MIC +[…] PB) was > 128 µg/mL, the “MIC without PB/MIC + PB” value ([3]; Acinetobacter spp. H064200250 (OXA51), +[…] PB, 2nd experiment) was 8 and the “MIC without PB/MIC + PB” value ([3]; Acinetobacter spp. H064200250, ratio, PB […], 1st experiment) was 1. The MIC ([3]; Acinetobacter, Acinetobacter spp. H064200250 (OXA51), +[…] PB, 2nd experiment, read-out: MIC) was 1 µg/mL (≈ 1.71 µM), the MBC (A. baumannii A489 [4]; A489, A. baumannii A489, +[…] PB, 2nd experiment, read-out: MBC) was 64 µg/mL (≈ 109 µM) and the MBC (A. baumannii A489 [4]; A489, read-out: MBC +[…] PB, A. baumannii A489, +[…] polymyxin B, 1st experiment) was 128 µg/mL (≈ 219 µM). For the same compound, the “MIC without PB/MIC + PB” value (A. baumannii J2; +[…] PB, 2nd experiment) was 16, the “MIC without PB/MIC + PB” value (A. baumannii J2; ratio, PB […], 1st experiment) was 8 and the MIC (A. baumannii J2; J2, A. baumannii J2, +[…] PB, 2nd experiment, read-out: MIC) was 0.5 µg/mL (≈ 0.854 µM). For the same compound, the MIC (A. baumannii J2; J2, read-out: MIC +[…] PB, A. baumannii J2, +[…] polymyxin B, 1st experiment) was 4 µg/mL (≈ 6.83 µM), the “MIC without PB/MIC + PB” value (A. baumannii A472 [5]; A. baumannii A472, ratio, PB […], 1st experiment) was ≥8 and the MIC (A. baumannii A472 [5]; A472, A. baumannii A472, +[…] PB, 2nd experiment, read-out: MIC) was 32 µg/mL (≈ 54.6 µM). The MIC (A. baumannii A472 [5]; A472, read-out: MIC +[…] PB, A. baumannii A472, +[…] polymyxin B, 1st experiment) was 16 µg/mL (≈ 27.3 µM), the “MIC without PB/MIC + PB” value (A. baumannii A401) was ≥1 and the “MIC without PB/MIC + PB” value (A. baumannii NCTC 13301 [6]; A. baumannii NCTC 13301, +[…] PB, 2nd experiment) was ≥1. The MIC (A. baumannii NCTC 13301 [6]; Acinetobacter baumannii, NCTC13301) was 128 µg/mL (≈ 219 µM), the “Change of activity (MIC) in presence of polymyxin B compared to without polymyxin B” value [7] was “not significantly affected” and the “Range ratios MIC without PB/MIC with PB Oct. 14, 2008 n = 11” value ([7]; 2nd experiment) was 1-16. For the same compound, the MIC (A. baumannii A14 [8]) was 8 µg/mL (≈ 13.7 µM), the “MIC without PB/MIC + PB” value (A. baumannii A14 [8]) was 2 and the MBC (A. baumannii A387 [9]) was 128 µg/mL (≈ 219 µM). For the same compound, the “MIC without PB/MIC + PB” value (A. baumannii A390 [10]; A. baumannii A390) was ≥2, the MIC (A. baumannii A390 [10]; Acinetobacter baumannii, A390, A. baumannii A390, read-out: MIC) was 64 µg/mL (≈ 109 µM) and the MBC (A. baumannii A472 [11]; A472, A. baumannii A472, +[…] PB, 2nd experiment, read-out: MBC) was 32 µg/mL (≈ 54.6 µM). The MBC (A. baumannii A472 [11]; A472, read-out: MBC +[…] PB, A. baumannii A472, +[…] polymyxin B, 1st experiment) was 32 µg/mL (≈ 54.6 µM), the “MIC without PB/MIC + PB” value (A. baumannii ATCC 19606 [12]; +0.06 μg/ml PB, 2nd experiment) was 2 and the “MIC without PB/MIC + PB” value (A. baumannii ATCC 19606 [12]; [20]) was 2. The MIC (A. baumannii ATCC 19606 [12]; ATCC19606, A. baumannii ATCC 19606, +0.06 μg/ml PB, 2nd experiment, read-out: MIC) was 8 µg/mL (≈ 13.7 µM), the MIC (A. baumannii ATCC 19606 [12]; ATCC19606, read-out: MIC +0.06 μg/ml PB, A. baumannii ATCC 19606, +0.06 μg/ml polymyxin B, 1st experiment) was 8 µg/mL and the “MIC without PB/MIC + PB” value (A. baumannii A473 [13]; A. baumannii A473, +0.06 μg/ml PB, 2nd experiment) was ≥1. For the same compound, the MIC (A. baumannii A473 [13]; Acinetobacter baumannii, A473) was 128 µg/mL (≈ 219 µM), the “MIC without PB/MIC + PB” value (A. baumannii A387 [14]; +0.06 μg/ml PB, 2nd experiment) was ≥1 and the “MIC without PB/MIC + PB” value (A. baumannii A387 [14]; [20]) was ≥1. For the same compound, the MIC (A. baumannii A387 [14]; Acinetobacter baumannii, A387) was 128 µg/mL (≈ 219 µM), the “MIC without PB/MIC + PB” value (A. baumannii A489 [15]; +[…] PB, 2nd experiment) was ≥2 and the “MIC without PB/MIC + PB” value (A. baumannii A489 [15]; ratio, PB […], 1st experiment) was ≥1. It also gave an MIC (A. baumannii A489 [15]; A489, A. baumannii A489, +[…] PB, 2nd experiment, read-out: MIC) of 64 µg/mL (≈ 109 µM), an MIC (A. baumannii A489 [15]; A489, read-out: MIC +[…] PB, A. baumannii A489, +[…] polymyxin B, 1st experiment) of 128 µg/mL (≈ 219 µM) and an MBC (A. baumannii A390 [16]) of 64 µg/mL (≈ 109 µM). It also gave an MBC (A. baumannii A14 [17]) of 8 µg/mL (≈ 13.7 µM), an MBC (A. baumannii A473 [18]) of 128 µg/mL (≈ 219 µM) and an MBC (A. baumannii NCTC 13301 [19]; NCTC13301, A. baumannii NCTC 13301, +[…] PB, preliminary MBC, 2nd experiment, read-out: MBC) of 64 µg/mL (≈ 109 µM). The MBC (A. baumannii NCTC 13301 [19]; NCTC13301, read-out: MBC +[…] PB) was > 128 µg/mL and the “MIC without PB/MIC + PB” value (A. baumannii A329) was 1.
